Source: article PMC9147695, “Design, Synthesis, Bioactivity Evaluation, Crystal Structures, and In Silico Studies of New α-Amino Amide Derivatives as Potential Histone Deacetylase 6 Inhibitors” (Molecules, 2022)
Where two headings read alike, the source gives them in different places.

How the values were obtained:
RPMI 8226 = assay: Anti-proliferative activity, CTG assay, RPMI 8226 cells; format: cell-based; conditions: for IC50: read-out: RPMI8226 (IC50); for inhibition at 10 µM / inhibition at 50 µM: read-out: Inhibition rate RPMI 8226 (%)
Procedure: (§1) RPMI 8226 and HL-7702 cells were cultured in RPMI-1640 medium, Hela cells were cultured in MEM medium, and HL-60 cells were cultured in IMDM medium with 1% penicillin–streptomycin solution and 10% FBS, respectively. The above cells were cultured at 37 °C and 5% CO2. After 24 h of cell spreading, 99 μL of medium per well was prepared and 1 μL of the compound prepared solution was added to the wells. Then, the solution was incubated at 37 °C in a 5% CO2 incubator for 72 h. The cell plates to be tested were left at room temperature and 100 μL of medium per well was discarded. Then, 100 μL of CTG reagent was added, placed in a rapid shaker for 2 min, and left at room temperature away from light for 30 min. The chemiluminescence signal was read by an envision multifunctional enzyme marker. The inhibition ratios and IC50 values were calculated using Prism Graph Pad software.

HL-60 = assay: Anti-proliferative activity, CTG assay, HL-60 cells; format: cell-based; conditions: for inhibition at 10 µM / inhibition at 50 µM: read-out: Inhibition rate HL-60 (%)
Procedure: as §1

[1] = Cytotoxicity toward human normal liver cells HL-7702, CTG assay; format: cell-based; conditions: human, HL-7702 normal liver cells, read-out: 50% cytotoxic concentration (CC50) HL-7702
Procedure: as §1

Hela = assay: Anti-proliferative activity, CTG assay, Hela cells; format: cell-based; conditions: 72 h; for inhibition at 10 µM / inhibition at 50 µM: read-out: Inhibition rate Hela (%)
Procedure: as §1

HL-7702 = assay: Cytotoxicity toward human normal liver cells HL-7702, CTG assay; format: cell-based; conditions: 72 h, read-out: 50% cytotoxic concentration (CC50) HL-7702
Procedure: as §1

[2] = Homo sapiens, RPMI-8226, 72 h, 10 μM
[3] = Homo sapiens, RPMI-8226, 72 h, 50 μM
[4] = Homo sapiens, HL-60, 72 h, 10 μM
[5] = Homo sapiens, HL-60, 72 h, 50 μM

Compound	IC50 (HL-60; Homo sapiens, HL-60, 72 h)	melting point	IC50 (RPMI 8226; Homo sapiens, RPMI-8226, 72 h)	CC50 at 72 h [1]	inhibition at 10 µM (RPMI 8226; [2])	inhibition at 50 µM (RPMI 8226; [3])	inhibition at 10 µM (HL-60; [4])	inhibition at 50 µM (HL-60; [5])	inhibition at 10 µM (Hela; Homo sapiens, HeLa, 10 μM)	inhibition at 50 µM (Hela; Homo sapiens, HeLa, 50 μM)	other results
COC(=O)C1CCCN1S(=O)(=O)c1ccc(-c2ccc(NC(=O)CN)cc2)cc1 [7a, (2R)-Methyl 1-{4-[4-[4-(2-Aminoacetamido)phenyl]benzenesulfonyl}pyrrolidine-2-carboxylate]	10.8 µM	163.4 to 165.3 °C	4.16 µM	21.1 µM	–	–	–	–	–	–	Inhibition rate RPMI 8226 (%) (RPMI 8226; 10 μM, 72 h): 74.54 ± 1.06%; Inhibition rate RPMI 8226 (%) (RPMI 8226; 50 μM, 72 h): 99.78 ± 0.03%; Inhibition rate HL-60 (%) (HL-60; 10 μM, 72 h): 42.45 ± 1.11%; Inhibition rate HL-60 (%) (HL-60; 50 μM, 72 h): 97.24 ± 0.02%; Inhibition rate Hela (%) (Hela; 10 μM): 98.11 ± 1.33%; Inhibition rate Hela (%) (Hela; 50 μM): 99.84 ± 0.11%; IC50 (Hela): 0.31 µM
COC(=O)[C@H]1CCCN1S(=O)(=O)c1ccc(-c2ccc(NC(=O)[C@@H](C)N)cc2)cc1 [7b, (2R)-1-(4-{4-[(2R)-2-Aminopropionamido]phenyl}benzenesulfonyl)pyrrolidine-2-carboxylate Methyl Ester]	–	157.4 to 159.1 °C	–	–	-4.81 ± 3.62%	41.4 ± 1.25%	4.32 ± 1.35%	46.9 ± 1.33%	-10.9 ± 2.58%	2.44 ± 0.72%	–
COC(=O)[C@H]1CCCN1S(=O)(=O)c1ccc(-c2ccc(NC(=O)[C@H](C)N)cc2)cc1 [7c, Methyl (2R)-1-(4-{4-[(2S)-2-Aminopropionamido]phenyl}benzenesulfonyl)pyrrolidine-2-carboxylate]	–	155.1 to 158.3 °C	–	–	1.42 ± 0.97%	49.7 ± 1.35%	2.78 ± 0.7%	49.6 ± 0.82%	-13.5 ± 1.33%	8.63 ± 2.03%	–
COC(=O)[C@H]1CCCN1S(=O)(=O)c1ccc(-c2ccc(NC(=O)CN)nc2)cc1 [7d]	–	170.2 to 173.5 °C	–	–	1.7 ± 0.72%	89.7 ± 1.48%	5.53 ± 1.21%	16.9 ± 1.74%	-5.24 ± 0.18%	41.8 ± 2.62%	–
COC(=O)[C@H]1CCCN1S(=O)(=O)c1ccc(-c2ccc(NC(=O)[C@@H](C)N)nc2)cc1 [7e, Methyl (2R)-1-(4-{6-[(2R)-2-Aminopropionamido]pyridin-3-yl}benzenesulfonyl)pyrrolidine-2-carboxylate]	–	146 to 148.4 °C	–	–	-2.63 ± 2.86%	24.4 ± 0.79%	-0.89 ± 2.31%	17.8 ± 0.86%	-11.9 ± 1.69%	7.27 ± 0.41%	–
COC(=O)[C@H]1CCCN1S(=O)(=O)c1ccc(-c2ccc(NC(=O)[C@H](C)N)nc2)cc1 [7f, (2R)-1-(4-{6-[(2S)-2-Aminopropionamido]pyridin-3-yl}benzenesulfonyl)pyrrolidine-2-carboxylate Methyl Ester]	–	146.2 to 148.9 °C	–	–	-4.38 ± 0.19%	29.4 ± 5.22%	11.1 ± 0.74%	28.2 ± 0.98%	-2.62 ± 1.36%	21.6 ± 6.65%	–
COC(=O)C1CCCN1S(=O)(=O)c1ccc(-c2ccc(NC(=O)CN)cc2)cc1 [13a, (2S)-Methyl 1-{4-[4-[4-(2-Aminoacetamido)phenyl]benzenesulfonyl}pyrrolidine-2-carboxylate]	–	–	–	–	63.1 ± 1.99%	99.89 ± 0.06%	59 ± 2.12%	99.25 ± 0.08%	98.74 ± 0.04%	99.68 ± 0.17%	IC50 (RPMI 8226; 72 h): 5.85 µM; IC50 (HL-60; 72 h): 7.23 µM; CC50 (HL-7702): 27.5 µM; IC50 (Hela): 5.19 µM
O=C(CCCCCCC(=O)Nc1ccccc1)NO [SAHA, vorinostat, reference compound]	–	–	–	2.03 µM	–	–	–	–	–	–	–

More lines, main results first:

IC50 (HL-60; Homo sapiens, HL-60, 72 h)	melting point	Compound	IC50 (RPMI 8226; Homo sapiens, RPMI-8226, 72 h)	CC50 at 72 h [1]	inhibition at 10 µM (RPMI 8226; [2])	inhibition at 50 µM (RPMI 8226; [3])	inhibition at 10 µM (HL-60; [4])	inhibition at 50 µM (HL-60; [5])	inhibition at 10 µM (Hela; Homo sapiens, HeLa, 10 μM)	inhibition at 50 µM (Hela; Homo sapiens, HeLa, 50 μM)	other results
10.3 µM	156.4 to 159.1 °C	COC(=O)[C@@H]1CCCN1S(=O)(=O)c1ccc(-c2ccc(NC(=O)[C@@H](C)N)cc2)cc1 [13b, (2S)-1-(4-{4-[(2R)-2-Aminopropionamido]phenyl}benzenesulfonyl)pyrrolidine-2-carboxylate Methyl Ester]	25.2 µM	89.1 µM	0.89 ± 3.52%	97.45 ± 0.36%	43.49 ± 0.21%	100.03 ± 0.04%	-4.83 ± 3.13%	62.27 ± 0.57%	IC50 (Hela; Homo sapiens, HeLa): 20.6 µM
30.9 µM	155.3 to 157.6 °C	COC(=O)[C@@H]1CCCN1S(=O)(=O)c1ccc(-c2ccc(NC(=O)[C@H](C)N)cc2)cc1 [13c, Methyl (2S)-1-(4-{4-[(2S)-2-Aminopropionamido]phenyl}benzenesulfonyl)pyrrolidine-2-carboxylate]	10.7 µM	43.7 µM	29.6 ± 0.48%	82.9 ± 2.04%	20 ± 2.83%	96.55 ± 0.22%	-3.69 ± 0.34%	72.3 ± 1.57%	IC50 (Hela; Homo sapiens, HeLa): 20.6 µM
10.5 µM	170.3 to 172.9 °C	COC(=O)[C@@H]1CCCN1S(=O)(=O)c1ccc(-c2ccc(NC(=O)CN)nc2)cc1 [13d]	32.2 µM	–	0.01 ± 0.52%	92.27 ± 0.08%	32 ± 3.2%	99.93 ± 0.05%	-18.4 ± 2.15%	33.4 ± 1.97%	IC50 (Hela; Homo sapiens, HeLa): 17.4 µM
–	146.2 to 148.9 °C	COC(=O)[C@@H]1CCCN1S(=O)(=O)c1ccc(-c2ccc(NC(=O)[C@@H](C)N)nc2)cc1 [13e, Methyl (2S)-1-(4-{6-[(2R)-2-Aminopropionamido]pyridin-3-yl}benzenesulfonyl)pyrrolidine-2-carboxylate]	–	–	5.5 ± 1.12%	94.89 ± 0.02%	17.43 ± 0.16%	99.98 ± 0.05%	-12.6 ± 1.59%	81.6 ± 1.09%	–
–	146.8 to 149.1 °C	COC(=O)[C@@H]1CCCN1S(=O)(=O)c1ccc(-c2ccc(NC(=O)[C@H](C)N)nc2)cc1 [13f, (2S)-1-(4-{6-[(2S)-2-Aminopropionamido]pyridin-3-yl}benzenesulfonyl)pyrrolidine-2-carboxylate Methyl Ester]	–	–	12.4 ± 0.52%	89.23 ± 0.24%	13.9 ± 0.73%	99.81 ± 0.12%	-6.37 ± 0.44%	91.57 ± 0.51%	–
